Experimental data from patent US20080194466A1, “(5Z)-5-(6-Quinoxalinylmethylidene)-2-[(2,4,6-Trichlorophenyl)Amino]-1,3-Thiazol-4(5H)-One” (priority 2005, published 2008).
Structures can show the parent of a compound that is named as a salt.

Assays:
[1] = Oral bioavailability (blood exposure, DNAUC) in rats; format: in vivo, male Sprague-Dawley rats; settings: for Oral DNAUC rats (Sprague-Dawley): sodium salts, oral gavage, dose ~1-4 mg/kg, 50% PEG-400, 10% ethanol, 40% of 40% (w/v) aqueous Encapsin, blood, LC/MS/MS, 0-1440 min
Method: The sodium salt of Compound A was fed to male Sprague-Dawley rats by oral gavage in a formulation with 50% PEG-400, 10% ethanol, 40% of 40% (w/v) aqueous Encapsin in water at a dose of between 1 and 4 mg/kg (16 mL of dose solution per kg). Blood (120 microliters) was sampled at the following time intervals: 0, 20, 40, 60, 120, 180, 240, 360, 480, and 1440 min. The concentration of Compound A was quantified by LC/MS/Ms analysis of an aliquot (25 microliters blood+25 microliters water) of these samples and the overall blood exposure reported as the Dose-Normalised Area Under the Curve (DNAUC) from a concentration versus time plot and expressed in the units microgram hours per milliliter per […] per kilogram (ug.h/mL/mg/kg). The oral exposures of the sodium salt of Compound B and the sodium salt of Compound C were quantified by the same method.

hYAK3 kinase enzyme = molecular target: T1, hYAK3 kinase enzyme (Homo sapiens, UniProt O43781); test: in vitro hYAK3 kinase enzyme inhibition; format: biochemical; settings: in vitro assays; compared with Compound B and Compound C
T1 sequence (O43781 1-588): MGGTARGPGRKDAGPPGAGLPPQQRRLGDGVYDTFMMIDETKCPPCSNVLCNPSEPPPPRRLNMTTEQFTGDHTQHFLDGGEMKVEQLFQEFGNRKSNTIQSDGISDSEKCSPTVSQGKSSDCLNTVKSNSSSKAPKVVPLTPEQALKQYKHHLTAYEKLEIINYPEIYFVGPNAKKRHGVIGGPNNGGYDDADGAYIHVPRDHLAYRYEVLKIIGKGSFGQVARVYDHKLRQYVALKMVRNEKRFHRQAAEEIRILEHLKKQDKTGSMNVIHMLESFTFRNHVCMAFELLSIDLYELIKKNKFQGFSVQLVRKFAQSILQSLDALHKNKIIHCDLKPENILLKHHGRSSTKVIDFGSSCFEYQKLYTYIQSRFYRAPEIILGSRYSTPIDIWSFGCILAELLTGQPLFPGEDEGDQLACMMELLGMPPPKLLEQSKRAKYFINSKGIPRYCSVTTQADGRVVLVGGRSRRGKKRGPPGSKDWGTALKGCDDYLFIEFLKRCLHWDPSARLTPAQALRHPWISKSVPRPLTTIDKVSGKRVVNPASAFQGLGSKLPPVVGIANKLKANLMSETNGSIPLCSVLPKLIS
Method: Compound A is tested for its ability to inhibit the hYAK3 kinase enzyme by known methods such as those described in International Application No. PCT/US2003/037658.

| SMILES | Oral DNAUC rats (Sprague-Dawley) [1] | hYAK3 kinase enzyme inhibition activity (hYAK3 kinase enzyme) | bioavailability in vivo ([1]; compared with the most closely related compounds of PCT/US2003/037658) |
| --- | --- | --- | --- |
| O=C1NC(=Nc2c(Cl)cccc2Cl)S/C1=C\c1ccc2ncccc2c1 [Compound B•Na, 2-(2,6-dichloro-phenylimino)-5-(quinolin-6-ylmethylene)-thiazolidin-4-one sodium salt, reference compound] | 0.49 ug · h/mL/min/kg |  |  |
| O=C1N=C(Nc2c(Cl)cc(Cl)cc2Cl)S/C1=C\c1ccc2nccnc2c1.[Na] [Compound A•Na, (5Z)-5-(6-quinoxalinylmethylidene)-2-[(2,4,6-trichlorophenyl)amino]-1,3-thiazol-4(5H)-one sodium salt] | 26.11 ug · h/mL/min/kg |  |  |
| O=C1NC(=Nc2ccccc2Cl)S/C1=C\c1ccc2nccnc2c1 [C•Na, 2-(2-chloro-phenylimino)-5-(quinoxalin-6-ylmethylene)-thiazolidin-4-one sodium salt, reference compound] | 0.34 ug · h/mL/min/kg |  |  |
| O=C1NC(=Nc2c(Cl)cc(Cl)cc2Cl)S/C1=C\c1ccc2nccnc2c1 [Compound A, (5Z)-5-(6-quinoxalinylmethylidene)-2-[(2,4,6-trichlorophenyl)amino]-1,3-thiazol-4(5H)-one] |  | activity similar to Compound B (described herein) and Compound C | significantly greater bioavailability in vivo |
